Experimental data as given in patent publication US20160220569A1, “CDK4/6 Inhibitor Dosage Formulations For The Protection Of Hematopoietic Stem And Progenitor Cells During Chemotherapy” (G1 Therapeutics, Inc., priority 2015, published 2016).
Values joined by “and” are separate entries in the source; they are usually repeats but may differ in a detail not shown here. Equal entries are not always repeated. Where two headings read alike, the source gives them in different places.

Test: Topotecan PK following Compound 1 infusion
Type: in vivo, human
Method: Blood samples were obtained prior to dosing, at the end of the 30-minute infusion (EOI), and at 0.5, 1, 1.5, 2, 2.5, 4, 6, 8, and 24 hours after the end of infusion. Analysis of plasma concentration versus time data for calculation of standard pharmacokinetic (PK) parameters following intravenous infusion administration was conducted using Phoenix WinNonlin version 6.3 using a nominal infusion duration and scheduled blood sampling times. In Cohort 2 there were 3 subjects who received 1.25 mg/m^2 of topotecan once daily on Days 1 to 5. In Cohort 3 there were 4 subjects who received 0.75 mg/m^2 of topotecan once daily on Days 1 to 5.

[1] = Topotecan 0.75 mg/m^2 (Cohort 3) with Compound 1 200 mg/m^2, Day 1, Max
[2] = Topotecan 0.75 mg/m^2 (Cohort 3) with Compound 1 200 mg/m^2, Day 1, Min
[3] = Topotecan 0.75 mg/m^2 (Cohort 3) with Compound 1 200 mg/m^2, Day 1, individual subjects, monohydrochloride
[4] = Topotecan 0.75 mg/m^2 (Cohort 3) with Compound 1 200 mg/m^2, Day 4, Max
[5] = Topotecan 0.75 mg/m^2 (Cohort 3) with Compound 1 200 mg/m^2, Day 4, Min
[6] = Topotecan 0.75 mg/m^2 (Cohort 3) with Compound 1 200 mg/m^2, Day 4, individual subjects, monohydrochloride
[7] = Topotecan 1.25 mg/m^2 (Cohort 2) with Compound 1 200 mg/m^2, Day 1, Max
[8] = Topotecan 1.25 mg/m^2 (Cohort 2) with Compound 1 200 mg/m^2, Day 1, Min
[9] = Topotecan 1.25 mg/m^2 (Cohort 2) with Compound 1 200 mg/m^2, Day 1, individual subjects, monohydrochloride
[10] = Topotecan 1.25 mg/m^2 (Cohort 2) with Compound 1 200 mg/m^2, Day 4, Max
[11] = Topotecan 1.25 mg/m^2 (Cohort 2) with Compound 1 200 mg/m^2, Day 4, Min
[12] = Topotecan 1.25 mg/m^2 (Cohort 2) with Compound 1 200 mg/m^2, Day 4, individual subjects, monohydrochloride
[13] = Topotecan […]^2 (Cohort 1) with Compound 1 200 mg/m^2, Day 1, Max
[14] = Topotecan […]^2 (Cohort 1) with Compound 1 200 mg/m^2, Day 1, Min
[15] = Topotecan […]^2 (Cohort 1) with Compound 1 200 mg/m^2, Day 1, individual subjects, monohydrochloride
[16] = Topotecan […]^2 (Cohort 1) with Compound 1 200 mg/m^2, Day 4, Max
[17] = Topotecan […]^2 (Cohort 1) with Compound 1 200 mg/m^2, Day 4, Min

For `CC[C@@]1(O)C(=O)OCc2c1cc1n(c2=O)Cc2cc3c(CN(C)C)c(O)ccc3nc2-1.Cl` [topotecan, (S)-10-[(dimethylamino)methyl]-4-ethyl-4,9-dihydroxy-1H-pyrano[3′,4′:6,7]indolizino[1,2-b]quinoline-3,14(4H,12H)-dione monohydrochloride], which AUC24.5 [1] is on record?
The AUC24.5 was 118 ng·h/mL.

And the AUCx5 [1]?
Its AUCx5 is 78600 nM·min.

What about the Cmax [1] of the same compound?
The Cmax was 38.5 ng/mL.

What about the t½ [1] of the same compound?
The t½ was 4.70 h.

And the AUCinf (Topotecan 0.75 mg/m^2 (Cohort 3) with Compound 1 200 mg/m^2, Day 1, Max, monohydrochloride)?
The AUCinf was 120 h*ng/mL and 15700 min*nM.

What about the AUC24.5 [2] of the same compound?
Its AUC24.5 is 75.0 ng·h/mL.

And the AUCx5 [2]?
Its AUCx5 is 49700 nM·min.

What about the Cmax [2] of the same compound?
Its Cmax is 17.9 ng/mL.

And the t½ [2]?
Its t½ is 4.04 h.

And the AUCinf (Topotecan 0.75 mg/m^2 (Cohort 3) with Compound 1 200 mg/m^2, Day 1, Min, monohydrochloride)?
The AUCinf was 75.9 h*ng/mL and 9950 min*nM.

And the AUC24.5 [3]?
The AUC24.5 was 75.0 ng·h/mL and 118 ng·h/mL and 94.7 ng·h/mL.

And the AUCinf [3]?
Its AUCinf is 75.9 h*ng/mL and 9950 min*nM and 120 h*ng/mL and 15700 min*nM and 96.8 h*ng/mL and 12700 min*nM.

What about the AUCx5 [3] of the same compound?
The AUCx5 was 49700 nM·min and 78600 nM·min and 63400 nM·min.

And the Cmax [3]?
Its Cmax is 20.8 ng/mL and 17.9 ng/mL and 38.5 ng/mL and 32.0 ng/mL.

What about the t½ [3] of the same compound?
Its t½ is 4.04 h and 4.27 h and 4.70 h.

And the Cmax [4]?
The Cmax was 30.7 ng/mL.

And the t½ [4]?
The t½ was 5.07 h.

What about the AUCτ (Topotecan 0.75 mg/m^2 (Cohort 3) with Compound 1 200 mg/m^2, Day 4, Max, monohydrochloride) of the same compound?
Its AUCτ is 112 h*ng/mL and 14700 min*nM.

And the Cmax [5]?
Its Cmax is 18.4 ng/mL.

What about the t½ [5] of the same compound?
Its t½ is 4.63 h.

What about the AUCτ (Topotecan 0.75 mg/m^2 (Cohort 3) with Compound 1 200 mg/m^2, Day 4, Min, monohydrochloride) of the same compound?
The AUCτ was 74.4 h*ng/mL and 9740 min*nM.

And the AUCτ [6]?
Its AUCτ is 74.4 h*ng/mL and 9740 min*nM and 99.7 h*ng/mL and 13100 min*nM and 112 h*ng/mL and 14700 min*nM.

And the Cmax [6]?
Its Cmax is 18.4 ng/mL and 30.7 ng/mL and 22.6 ng/mL.

What about the t½ [6] of the same compound?
Its t½ is 5.07 h and 4.68 h and 4.73 h.

What about the AUC24.5 [7] of the same compound?
The AUC24.5 was 247 ng·h/mL.

And the AUCx5 [7]?
The AUCx5 was 166000 nM·min.

What about the Cmax [7] of the same compound?
The Cmax was 94.1 ng/mL.

What about the t½ [7] of the same compound?
The t½ was 5.09 h.

What about the AUCinf (Topotecan 1.25 mg/m^2 (Cohort 2) with Compound 1 200 mg/m^2, Day 1, Max, monohydrochloride) of the same compound?
The AUCinf was 254 h*ng/mL and 33300 min*nM.

What about the AUC24.5 [8] of the same compound?
The AUC24.5 was 120 ng·h/mL.

What about the AUCx5 [8] of the same compound?
The AUCx5 was 80400 nM·min.

And the Cmax [8]?
Its Cmax is 39.3 ng/mL.

And the t½ [8]?
The t½ was 4.78 h.

What about the AUCinf (Topotecan 1.25 mg/m^2 (Cohort 2) with Compound 1 200 mg/m^2, Day 1, Min, monohydrochloride) of the same compound?
The AUCinf was 123 h*ng/mL and 16100 min*nM.

What about the AUC24.5 [9] of the same compound?
Its AUC24.5 is 247 ng·h/mL and 120 ng·h/mL.

And the AUCx5 [9]?
The AUCx5 was 106000 nM·min and 166000 nM·min and 80400 nM·min.

What about the Cmax [9] of the same compound?
The Cmax was 94.1 ng/mL and 39.3 ng/mL.

What about the t½ [9] of the same compound?
The t½ was 5.09 h and 4.92 h.

What about the Cmax [10] of the same compound?
The Cmax was 104 ng/mL.

And the t½ [10]?
The t½ was 5.97 h.

What about the AUCτ (Topotecan 1.25 mg/m^2 (Cohort 2) with Compound 1 200 mg/m^2, Day 4, Max, monohydrochloride) of the same compound?
Its AUCτ is 231 h*ng/mL and 30300 min*nM.

What about the Cmax [11] of the same compound?
Its Cmax is 33.1 ng/mL.

What about the t½ [11] of the same compound?
The t½ was 4.98 h.

What about the AUCτ (Topotecan 1.25 mg/m^2 (Cohort 2) with Compound 1 200 mg/m^2, Day 4, Min, monohydrochloride) of the same compound?
The AUCτ was 124 h*ng/mL and 16300 min*nM.

And the AUCτ [12]?
Its AUCτ is 231 h*ng/mL and 30300 min*nM and 124 h*ng/mL and 16300 min*nM.

What about the Cmax [12] of the same compound?
The Cmax was 104 ng/mL and 33.1 ng/mL.

What about the t½ [12] of the same compound?
Its t½ is 5.97 h and 4.98 h.

What about the AUC24.5 [13] of the same compound?
The AUC24.5 was 169 ng·h/mL.

And the AUCx5 [13]?
Its AUCx5 is 112000 nM·min.

And the Cmax [13]?
The Cmax was 98.8 ng/mL.

What about the t½ [13] of the same compound?
The t½ was 4.56 h.

And the AUCx5 [14]?
The AUCx5 was 86600 nM·min.

What about the Cmax [14] of the same compound?
Its Cmax is 40.2 ng/mL.

What about the t½ [14] of the same compound?
Its t½ is 4.11 h.

And the AUCinf (Topotecan […]^2 (Cohort 1) with Compound 1 200 mg/m^2, Day 1, Min, monohydrochloride)?
The AUCinf was 17300 nM·min.

What about the AUC24.5 [15] of the same compound?
Its AUC24.5 is 169 ng·h/mL.

What about the AUCx5 [15] of the same compound?
The AUCx5 was 112000 nM·min.

What about the t½ [15] of the same compound?
Its t½ is 4.11 h.

And the Cmax [16]?
Its Cmax is 122 ng/mL.

And the t½ [16]?
The t½ was 5.11 h.

What about the Cmax [17] of the same compound?
The Cmax was 56.5 ng/mL.

And the t½ [17]?
Its t½ is 4.64 h.

What about the AUCτ (Topotecan […]^2 (Cohort 1) with Compound 1 200 mg/m^2, Day 4, Min, monohydrochloride) of the same compound?
The AUCτ was 18800 nM·min.

What about the t½ (Topotecan […]^2 (Cohort 1) with Compound 1 200 mg/m^2, Day 4, individual subjects, monohydrochloride) of the same compound?
Its t½ is 4.64 h.

What about the AUC (human, plasma, intravenous, Topotecan 0.75 mg/m^2 (Cohort 3) with Compound 1 200 mg/m^2, Day 1, Mean, read-out: AUC24.5) of the same compound?
Its AUC is 92.8 ng·h/mL.

And the AUC(0-inf) (human, plasma, intravenous, Topotecan 0.75 mg/m^2 (Cohort 3) with Compound 1 200 mg/m^2, Day 1, Mean, read-out: AUCinf (converted))?
The AUC(0-inf) was 94.4 ng·h/mL and 0.207 µM·h.

And the AUC (human, plasma, intravenous, Topotecan 0.75 mg/m^2 (Cohort 3) with Compound 1 200 mg/m^2, Day 1, Mean, read-out: AUCx5 (converted))?
Its AUC is 1.03 µM·h.
